Literature values in patent US20140142181A1, “TREATING AND INHIBITING RECURRENCE OF MUSCLE CRAMPS” (priority 2012, published 2014).

Columns and labels:
[1] = received by USFDA; quinine use
[2] = test system: cramping; details: 39 Division I baseball players; creatine supplementation during training and competition

Row | Cramping, creatine group versus non-creatine group [2] | SMILES | Deaths among reported adverse events [1] | Reports of adverse events with serious outcomes [1]
1 |  | C=C[C@H]1C[N@@]2CC[C@H]1C[C@H]2[C@H](O)c1ccnc2ccc(OC)cc12 [quinine, Quinine] | 93 | 665
2 | no significant difference | CN(CC(=O)O)C(=N)N [creatine] |  | 
